# Results as given in patent US20210161999A1, “COMPOSITIONS AND METHODS RELATED TO OVERCOMING INNATE IMMUNE BARRIERS TO CANCER IMMUNOTHERAPY” (Health Research, Inc., priority 2018, published 2021).
# “Also recorded” adds a separate entry of the source.
# Tests used:
# [1] = test system: TALs; experiment: Coculture of TALs with autologous ascites and healthy donor PMN; anti-CD3/CD28-stimulated proliferation; assay type: cell-based, human; conditions: Cp40-ASC; TALs from n=3 patients, PMN from healthy donors
# Text: FIG. 15. Inhibition of complement C3 activation abrogates the PMN suppressor phenotype induced by malignant effusions. […] The abrogation effect of Cp40 was highly robust, and was observed consistently in at least 10 separate experiments and 15 different ascites samples. […] C) Cryopreserved or fresh TALs (from n=3 patients) were cocultured with autologous ASC and/or PMN from healthy donors. […] Statistics are by ANOVA as compared to +CD3/CD28+ ASC+PMN (*, p<0.05; **, p<0.01; ***, p<0.001).
# Inhibition of C3 abrogates neutrophil suppressor phenotype on EOC TALs In patients with metastatic EOC, tumor antigen-specific CD8^+ T cells have impaired effector function and increased co-expression of PD-1 and LAG-3 compared to circulating lymphocytes, and effector function was enhanced with blockade of PD-1 and LAG-3. We confirmed high expression of PD-1 and LAG-3 on TALs from the ascites of patients with newly diagnosed EOC (not shown). We next cocultured cryopreserved or fresh TALs from 3 patients with autologous ascites and/or neutrophils from healthy donors.
# [2] = test system: T cells; experiment: Surface expression of PD-1, LAG-3 and CTLA-4 on stimulated T cells after coculture (flow cytometry); assay type: cell-based, human; conditions: coculture with Cp40-ASC and PMN, compared to unstimulated (n=6)
# Protocol: FIG. 6. Combination of ascites and PMN prevents T cell activation and is independent of exhaustion. T cells (CD3^+) and PMN were used in autologous coculture at 1:1. PMN and/or ascites supernatants (ASC; 50% final well volume) were added to anti-CD3/CD28-stimulated T cells. At 24, 48, and 72 h, T cells were analyzed for surface and intracellular expression of markers for activation, co-stimulation, and function. Surface expression of A) CD62L, B) CD69, C) CD4OL, and D) CD107a were evaluated at baseline (on y-axis) and at 24, 48, and 72 h (n=2). E-M) PD-1, LAG-3, and CTLA-4 expression was evaluated (n=4). CD8^+ T cells at 72 h are represented here in representative MFI overlays (E-G) and quantification (H-J); unstimulated T cells in media, grey solid; anti-CD3/CD28-stimulated, black dashed line; anti-CD3/CD28-stimulated+PMN, purple solid line; anti-CD3/CD28-stimulated+ASC, orange solid line; anti-CD3/CD28-stimulated+ASC+PMN, green solid line. […] N) At 72 h, intracellular expression of IFN-gamma was reduced as compared to stimulated alone (n=3). O-P) Combination of ASC and PMN reduced anti-CD3/CD28-stimulated T cell IL-2 levels (pg/mL) in supernatants to ND after 24 (O) and 72 h (P) of coculture (n=4). Background levels of PMN or ASC were ND; ND=non-detectable. Q) CTL activity of NY-ESO-1157-165-specific CD8^+ T cells directed at SK29 target cells pulsed with the NY-ESO-1 peptide was unaffected by coculture with ASC and/or PMN (n=3). Symbols represent individual samples (n) and bars represent SEM. Statistical comparisons were by Mann-Whitney (*, p<0.05; **, p<0.01; ***, p<0.001; ns, not significant). Results were consistent between CD4^+ and CD8^+ T cells.
# Data were analyzed using FCS Express 6.
# Fc receptors were blocked to prevent non-specific antibody binding prior to staining (15 min, 4° C.; anti-mouse CD16/CD32, clone 2.4G2; BD Biosciences). For phenotyping of PMN, antibodies targeted to human CD45 (clone REA747), CD15 (VIMC6) (Miltenyi Biotec, Inc.), CD63 (H5C6), CD66b (G10F5), and CD35 (Ell) (Biolegend) were used. […]
compound,measurement,setting,value
CC[C@H](C)[C@H](NC(=O)[C@H](N)Cc1ccc(O)cc1)C(=O)N[C@H]1CSSC[C@@H](C(=O)N(C)[C@H](C(N)=O)[C@@H](C)CC)NC(=O)[C@H](CCCNC(=N)N)NC(=O)[C@H](Cc2c[nH]cn2)NC(=O)[C@H](C)NC(=O)CN(C)C(=O)[C@H](Cc2c[nH]c3ccccc23)NC(=O)[C@H](CC(=O)O)NC(=O)[C@H](CCC(N)=O)NC(=O)[C@H](Cc2cn(C)c3ccccc23)NC(=O)[C@H](C(C)C)NC1=O [Cp40],effect on suppression of stimulated TAL proliferation,[1],fully abrogated
same,CTLA-4 expression on stimulated T cells,[2],showed an upwards trend; also recorded: upregulated relative to unstimulated T cells
same,LAG-3 expression on stimulated T cells,[2],unaffected; also recorded: did not result in upregulation
same,PD-1 expression on stimulated T cells,[2],unaffected; also recorded: did not result in upregulation
